Measured values: patent US20250236627A1, “CERTAIN OCTAHYDROFURO[3,4- B]PYRAZINES AS GLP-1 RECEPTOR MODULATORS” (ASTRAZENECA AB, priority 2021, published 2025)

Key:
[1] = molecular target: T1, endogenous human glucagon-like peptide 1 receptor (GLP-1R) (Homo sapiens, UniProt P43220); assay: EndoC cAMP Accumulation Assay; type: cell-based; settings: EndoC-βH1 human pancreatic β cell line; HTRF cAMP assay
T1 construct: endogenous human glucagon-like peptide 1 receptor (GLP-1R) in a pancreatic insulinoma cell line; host or cells: EndoC-βH1 human pancreatic β cell line
Excerpt: EndoC cAMP Accumulation Assay
A HTRF (Homogeneous Time-Resolved Fluorescence) cAMP assay (cAMP Gs dynamic kit; CisoBio Cat #62AM4PEJ) was used to identify agonists of the endogenous human glucagon-like peptide 1 receptor (GLP-1R) in a pancreatic insulinoma cell line (EndoC-βH1). […] EndoC-βH1 cells have detectable GLP-1R mRNA as detected by qPCR^1. […] The EndoC-βH1 cell line is a valid model of human beta cells and applicable for screenings to identify novel drug target candidates (Mol. Metab., 2018, 8, 144-157). CisBio HTRF cAMP kits are based on a competitive immunoassay using cryptate-labelled anti-cAMP antibody and d2-labeled cAMP. The detection kit is intended for the direct quantitative determination of cAMP. The specific signal (i.e. energy transfer) is inversely proportional to the concentration of cAMP in the standard or sample. Test compounds (10 mM in DMSO) were diluted into assay buffer (HBSS (Sigma #H8264) supplemented with 25 mM HEPES (Gibco #15630, pH 7.4), 0.1% BSA (Sigma #A3059) and 0.5 mM IBMX (Sigma #I7018) included fresh on the day of the assay) into 96 well U-bottom plates (Greiner #650201). Diluted compounds were transferred to ECHO source PP plates (Labcyte #P-05525) and dose response curves were dispensed acoustically using ECHO 550 into black shallow-well u-bottom 384-well HTRF Assay Plates (Corning 4514).
Cryovials of EndoC-H1 (supplied at 1×10e^7 cells/vial) were used directly for screening. The cryovials and were removed from LN2 and thawed rapidly in a 37° C. water bath. The cells were resuspended in assay buffer and centrifuged at 300 g for 5 min. Cells were resuspended in assay buffer at the appropriate concentration, typically at 12e5 cells per mL (3000 cells per well, dependent on cell batch) and 2.5 μL diluted cells were added to all wells of destination plate by Multidrop combi reagent dispenser (Thermofisher). The plates were incubated at room temperature for 30 min. The assay was stopped by adding 2.5 μL anti-cAMP cryptate solution to all wells and 2.5 μL cAMP-d2 solution (both diluted 1:20 in lysis buffer) to columns 1-22 by Combi drop. A volume of 2.5 μL cAMP-d2 solution was added to wells E23 to P24 and 2.5 μL lysis buffer added to wells A23 to D24 by multichannel pipette. The plates were incubated at room temperature for 1 hr and read on an Envision plate reader using excitation wavelength of 320 nm and emission of 590 nm and 660 nm.
Raw data from Envision is converted to % DeltaF according to the manufacturer's instructions. Dose response curves are analysed via 4-Parameter Logistical Analysis and assay plate Z′ values obtained. Samples are graphed as percentage (%) activation plots compared to GIP (1-42, Bachem H-5645) with assay window defined by negative control as basal cell cAMP levels and positive control are defined by maximum GIP (82.5 nM) signal. GLP1 (7-36 amide, Bachem H-6795) dose response curve was included on all plates.

human GLP-1R receptor = molecular target: T2, human GLP-1R receptor (Homo sapiens, UniProt P43220, L260F); assay: CHOK1 GLP-1R cAMP Assay; type: cell-based; settings: CHO-K1 cell line stably expressing human GLP-1R; HTRF cAMP detection
T2 construct: expressed in transfected cells; host or cells: CHO-K1 (ATCC CCL-61)
Procedure: A cell line stably expressing the human GLP-1R receptor (NM_002062.5, including the naturally-occurring variant Leu260Phe) in a CHO-K1 (ATCC® CCL-61™) was used for assay.
GLP-1 Receptor mediated agonist activity was determined in a cell based assay measuring cAMP levels in cells using Homogeneous Time-Resolved Fluorescence (HTRF) cAMP detection kit (CisBio catalog #62AM4PEC, cAMP Gs Dynamic range kit). The cAMP detection method is based on a competitive immunoassay, in which cAMP produced by the cells and cAMP labeled with the dye d2 compete for binding to a Europium-Cryptate-labeled anti-cAMP antibody. The specific HTRF signal is inversely proportional to the concentration of cAMP.
Compounds were added to individual well in 384 well-assay plates (Greiner #784076) using an Echo (LabCyte) dispenser from 10 mM stocks. Varying concentration of compounds were added to wells, and dimethyl sulfoxide was used to normalize each well to a volume of 100 nanoliter. A dose response curve of GLP1(7-36)NH2 (Bachem H-6795) was included in each run. 5 μL of cAMP concentration response standards are applied in specified wells in the assay plates.
Cryo-preserved cells are thawed and resuspended in assay buffer pre-heated to 37° C. (20 mM 2-[4-(2-hydroxyethyl)piperazin-1-yl]ethanesulfonic acid (HEPES) pH 7.4, lx Hank's Balanced Salt Solution (HBSS, Life Technologies #14065) supplemented with 0.1% (w/v) bovine serum albumin (Sigma, A-7030)). Cells were centrifuged at 250*g for 5 min at room temperature, and resuspend in room tempered assay buffer to a final density of 0.16*10^6 cell/mL, to deliver 800 cells/well. 5 μL of assay buffer with 1 mM 3-isobutyl-1-methylxanthin (IBMX; Sigma cat I-7018) was dispensed per well in assay plates using a multidrop combi (Thermo Scientific) subsequently 5 μL of cell suspension was distributed to relevant wells in the assay using a multidrop dispenser. Assay plates were incubated 20 min at room temperature.
Detection reagents, Europium-Cryptate-labeled anti-cAMP antibody and cAMP labeled with the dye d2, are diluted in lysis buffer, provided by the manufacturer. 5 μL of each detection reagent is supplemented to each assay well using a multidrop dispenser. Assay plates are incubated in the dark for at least one hour. The HTRF signal is measured using the HTRF module (excitation: 337 nm, emission A: 665 nm and emission B: 620 nm) in Pherastar FSX (BMG Labtech).
Raw data were converted to pM cAMP using the cAMP standard curve included in each run. Converted data were further analyzed in Genedata Screener (Genedata) and EC50 determinations were made from agonist dose-response curves analyzed with a curve fitting program using a 4-parameter logistic dose response equation (Equation y=A+((B−A)/1+((C/x)^D))) where A is no stimulation, B is full stimulation, C is the EC50 and D is the Hill slope). The percent effect was determined relative to a saturating concentration of a full GLP-1R agonist (GLP1(7-36)NH2 has 100% effect in this assay setup).

T1 sequence (P43220 24-463): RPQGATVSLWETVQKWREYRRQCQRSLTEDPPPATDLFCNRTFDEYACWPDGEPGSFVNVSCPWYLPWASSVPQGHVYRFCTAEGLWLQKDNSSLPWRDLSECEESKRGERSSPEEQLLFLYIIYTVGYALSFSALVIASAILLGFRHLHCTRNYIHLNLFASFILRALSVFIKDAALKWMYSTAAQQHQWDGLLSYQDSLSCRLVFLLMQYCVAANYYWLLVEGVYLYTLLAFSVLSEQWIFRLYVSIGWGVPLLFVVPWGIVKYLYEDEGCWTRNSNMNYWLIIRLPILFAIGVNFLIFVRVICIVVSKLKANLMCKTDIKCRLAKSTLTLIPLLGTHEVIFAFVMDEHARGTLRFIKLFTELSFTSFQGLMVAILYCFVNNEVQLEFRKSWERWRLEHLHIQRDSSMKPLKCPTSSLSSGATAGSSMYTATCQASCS
T2 sequence (P43220 24-463 L260F): as the sequence (P43220 24-463) above, with L237F counted along it

Row | Structure (SMILES) | EC50 [1] | EC50 (human GLP-1R receptor)
1 | C[C@]1(c2ccc(Cl)cn2)Oc2cccc(N3CCN(Cc4nc5ccc(C(=O)O)cc5n4C[C@@H]4CCO4)[C@H]4COC[C@H]43)c2O1 (relative stereo) [Example 5a, 2-((4aR*,7aS*)-4-((R*)-2-(5-Chloropyridin-2-yl)-2-methylbenzo[d][1,3]dioxol-4-yl)hexahydrofuro[3,4-b]pyrazin-1(2H)-yl)methyl)-1-(((S)-oxetan-2-yl)methyl)-1H-benzo[d]imidazole-6-carboxylic acid] | 1300 nM | 180 nM
2 | C[C@@]1(c2ccc(Cl)cc2F)Oc2cccc(N3CCN(Cc4nc5c(F)cc(C(=O)O)cc5n4Cc4cccnc4)[C@@H]4COC[C@@H]43)c2O1 (relative stereo) [Example 13c, rel-2-(((4aR,7aS)-4-((R)-2-(4-Chloro-2-fluorophenyl)-2-methylbenzo[d][1,3]dioxol-4-yl)hexahydrofuro[3,4-b]pyrazin-1(2H)-yl)methyl)-4-fluoro-1-(pyridin-3-ylmethyl)-1H-benzo[d]imidazole-6-carboxylic acid] | 340 nM | 730 nM
3 | C[C@@]1(c2ccc(Cl)cc2F)Oc2cccc(N3CCN(Cc4nc5c(Cl)cc(C(=O)O)cc5n4C[C@@H]4CCO4)[C@@H]4COC[C@@H]43)c2O1 (relative stereo) [Example 15a, 4-Chloro-2-(((4aR*,7aS*)-4-((R*)-2-(4-chloro-2-fluorophenyl)-2-methylbenzo[d][1,3]dioxol-4-yl)hexahydrofuro[3,4-b]pyrazin-1(2H)-yl)methyl)-1-(((S)-oxetan-2-yl)methyl)-1H-benzo[d]imidazole-6-carboxylic acid] | 1.9 nM | 1.1 nM
4 | COc1cc(C(=O)O)cc2c1nc(CN1CCN(c3cccc4c3OC(C)(c3ccc(Cl)cc3F)O4)[C@@H]3COC[C@@H]31)n2C[C@@H]1CCCO1 (relative stereo) [Example 28, 2-(((4aS,7aR)-4-((R*)-2-(4-Chloro-2-fluorophenyl)-2-methylbenzo[d][1,3]dioxol-4-yl)hexahydrofuro[3,4-b]pyrazin-1(2H)-yl)methyl)-4-methoxy-1-(((S)-tetrahydrofuran-2-yl)methyl)-1H-benzo[d]imidazole-6-carboxylic acid] | 1.2 nM | 2 nM
5 | COc1cc(C(=O)O)cc2c1nc(CN1CCN(c3cccc4c3O[C@@](C)(c3ccc(Cl)cn3)O4)[C@@H]3COC[C@@H]31)n2C[C@@H]1CCO1 (single isomer, unassigned) [Example 1a, 2-(((4aR*,7aS*)-4-((R*)-2-(5-Chloropyridin-2-yl)-2-methylbenzo[d][1,3]dioxol-4-yl)hexahydrofuro[3,4-b]pyrazin-1(2H)-yl)methyl)-4-methoxy-1-(((S)-oxetan-2-yl)methyl)-1H-benzo[d]imidazole-6-carboxylic acid] | 210 nM | 140 nM
6 | COc1cc(C(=O)O)cc2c1nc(CN1CCN(c3cccc4c3O[C@@](C)(c3ccc(Cl)cn3)O4)[C@@H]3COC[C@@H]31)n2C[C@@H]1CCCO1 (single isomer, unassigned) [Example 2b, 2-(((4aR*,7aS*)-4-((R*)-2-(5-Chloropyridin-2-yl)-2-methylbenzo[d][1,3]dioxol-4-yl)hexahydrofuro[3,4-b]pyrazin-1(2H)-yl)methyl)-4-methoxy-1-(((S)-tetrahydrofuran-2-yl)methyl)-1H-benzo[d]imidazole-6-carboxylic acid] | 86 nM | 110 nM
7 | COc1cc(C(=O)O)cc2c1nc(CN1CCN(c3cccc4c3O[C@@](C)(c3ccc(Cl)cc3F)O4)[C@@H]3COC[C@@H]31)n2C[C@@H]1CCO1 (single isomer, unassigned) [Example 3a, 2-(((4aR*,7aS*)-4-((R*)-2-(4-Chloro-2-fluorophenyl)-2-methylbenzo[d][1,3]dioxol-4-yl)hexahydrofuro[3,4-b]pyrazin-1(2H)-yl)methyl)-4-methoxy-1-(((S)-oxetan-2-yl)methyl)-1H-benzo[d]imidazole-6-carboxylic acid] | 1.7 nM | 1.2 nM
8 | COc1cc(C(=O)O)cc2c1nc(CN1CCN(c3cccc4c3O[C@@](C)(c3ccc(Cl)cc3F)O4)[C@@H]3COC[C@@H]31)n2C[C@@H]1CCO1 (single isomer, unassigned) [Example 3b, 2-(((4aR*,7aS*)-4-((R*)-2-(4-Chloro-2-fluorophenyl)-2-methylbenzo[d][1,3]dioxol-4-yl)hexahydrofuro[3,4-b]pyrazin-1(2H)-yl)methyl)-4-methoxy-1-(((S)-oxetan-2-yl)methyl)-1H-benzo[d]imidazole-6-carboxylic acid] | 270 nM | 61 nM
9 | COc1cc(C(=O)O)cc2c1nc(CN1CCN(c3cccc4c3O[C@@](C)(c3ccc(Cl)cc3F)O4)[C@@H]3COC[C@@H]31)n2C[C@@H]1CCO1 (single isomer, unassigned) [Example 3c, 2-(((4aR*,7aS*)-4-((R*)-2-(4-Chloro-2-fluorophenyl)-2-methylbenzo[d][1,3]dioxol-4-yl)hexahydrofuro[3,4-b]pyrazin-1(2H)-yl)methyl)-4-methoxy-1-(((S)-oxetan-2-yl)methyl)-1H-benzo[d]imidazole-6-carboxylic acid] | 130 nM | 150 nM
10 | C[C@]1(c2ccc(Cl)cc2F)Oc2cccc(N3CCN(Cc4nc5ccc(C(=O)O)cc5n4CCn4cccn4)[C@H]4COC[C@H]43)c2O1 (single isomer, unassigned) [Example 7b] | – | 380 nM
